One experiment has as its target T1, ERα (Homo sapiens, UniProt P03372).
T1 sequence (P03372 1-595): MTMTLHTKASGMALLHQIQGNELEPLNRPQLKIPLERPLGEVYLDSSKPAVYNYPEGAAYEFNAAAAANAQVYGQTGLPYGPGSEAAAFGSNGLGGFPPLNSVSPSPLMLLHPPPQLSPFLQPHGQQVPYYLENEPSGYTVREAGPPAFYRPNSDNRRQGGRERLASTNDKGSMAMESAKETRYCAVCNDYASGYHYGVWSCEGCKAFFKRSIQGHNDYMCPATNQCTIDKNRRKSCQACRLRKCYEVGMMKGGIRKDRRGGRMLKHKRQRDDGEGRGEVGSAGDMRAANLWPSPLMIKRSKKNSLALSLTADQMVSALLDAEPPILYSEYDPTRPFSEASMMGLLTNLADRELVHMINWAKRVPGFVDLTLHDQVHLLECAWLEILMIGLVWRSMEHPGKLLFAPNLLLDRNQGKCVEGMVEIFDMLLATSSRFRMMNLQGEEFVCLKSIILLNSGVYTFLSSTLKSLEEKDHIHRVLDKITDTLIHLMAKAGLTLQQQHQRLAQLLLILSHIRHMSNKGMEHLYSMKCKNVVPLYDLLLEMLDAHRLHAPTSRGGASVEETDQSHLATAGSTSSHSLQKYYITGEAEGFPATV
In words: ERα luciferase reporter (pERE2TATA-LUC) transactivation assay in transfected HEK293 cells. The experiment is classed as cell-based. Details: expressed in transfected cells; host or cells: HEK293. Particulars: 24 hours; for ERα receptor activation relative to 10 nM E2 corresponding 100: Table 1, sample concentration 10 μM, mean of at least three independent transfections, SEM typically <15%; for ERα in vitro activity (receptor activation relative to 10 nM E2): Table 2, previously published compounds, test compound 10 μM. As to the method:
(§1) All other reagents were of reagent grade from Sigma or Fluka. One day before transfection, HEK293 cells were seeded in 48-well plates (70×10^3 cells per well) in phenol-free Dulbecco's modified Eagle medium supplemented with 5% delipidated fetal bovine serum (Sigma) and antibiotics. After a medium change, the cells were transfected for 4 hours with 5 ng ERα or ERβ expression vector, 75 ng reporter plasmid pERE2TATA-LUC and 20 ng control plasmid pCMVβ by the calcium phosphate method. After transfection, the cells received fresh medium containing either vehicle (0.1% v/v) or test compound (10 μM). After 24 hours, the cells were washed, lysed and luciferase and β-galactosidase activities were determined from 20 μl of lysates with the Victor^2TM reader (PerkinElmer Wallac, Turku, Finland). […] The data are means±SEM of at least three independent transfections.

Another experiment deals with ERβ (Homo sapiens, UniProt Q92731). In words: ERβ luciferase reporter (pERE2TATA-LUC) transactivation assay in transfected HEK293 cells. The experiment is classed as cell-based. Details: expressed in transfected cells; host or cells: HEK293. Particulars: for ERβ receptor activation relative to 10 nM E2 corresponding 100: Table 1, sample concentration 10 μM, mean of at least three independent transfections, SEM typically <15%; for ERβ receptor activation relative to 10 nM E2 corresponding 100 / ERβ in vitro activity (receptor activation relative to 10 nM E2): 24 hours; for ERβ in vitro activity (receptor activation relative to 10 nM E2): Table 2, previously published compounds, test compound 10 μM. As to the method:
as §1

Chain of ERβ (Q92731 whole entry): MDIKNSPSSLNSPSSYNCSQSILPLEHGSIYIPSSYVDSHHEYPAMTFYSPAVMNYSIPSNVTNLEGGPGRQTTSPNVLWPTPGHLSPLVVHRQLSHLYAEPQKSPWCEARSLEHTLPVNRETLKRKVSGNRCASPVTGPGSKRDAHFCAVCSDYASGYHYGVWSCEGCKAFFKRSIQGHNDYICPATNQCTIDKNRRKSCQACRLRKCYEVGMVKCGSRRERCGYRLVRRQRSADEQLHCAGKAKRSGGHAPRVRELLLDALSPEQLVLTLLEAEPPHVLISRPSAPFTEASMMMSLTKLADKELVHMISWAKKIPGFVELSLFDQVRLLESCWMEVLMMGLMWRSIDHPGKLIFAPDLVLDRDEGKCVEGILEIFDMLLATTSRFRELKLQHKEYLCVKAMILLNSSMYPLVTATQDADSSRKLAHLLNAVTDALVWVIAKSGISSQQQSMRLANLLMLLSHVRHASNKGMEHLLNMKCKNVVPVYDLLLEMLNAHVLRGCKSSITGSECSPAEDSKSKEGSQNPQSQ

In the case of `COc1ccccc1CC(=O)CC(O)CCc1cccc(F)c1` (single isomer, unassigned) [Compound 22a, 6-(3-Fluorophenyl)-4-hydroxy-1-(2-methoxyphenyl)-2-hexanone], on ERα, the “ERα receptor activation relative to 10 nM E2 corresponding 100” value is given as 8.4%. Moreover, on ERβ, the “ERβ receptor activation relative to 10 nM E2 corresponding 100” value stood at 3.4%.

Regarding `COc1ccccc1CC(=O)CC(O)CCc1cccc(F)c1` (single isomer, unassigned) [Compound 22b, 6-(3-Fluorophenyl)-4-hydroxy-1-(2-methoxyphenyl)-2-hexanone], the “ERα receptor activation relative to 10 nM E2 corresponding 100” value on ERα was 5.6%. Also, on ERβ (HEK293, 24 h, read-out: ERβ receptor activation relative to 10 nM E2 corresponding 100, Table 1, sample concentration 10 μM, mean of at least three independent transfections, SEM typically <15%), the Emax at 10 µM was 2.9%.

In the case of `COc1ccc(CC(O)CC(=O)CCc2ccccc2)cc1` (single isomer, unassigned) [Compound 24a, 5-Hydroxy-6-(4-methoxyphenyl)-1-phenyl-hexan-3-one], the “ERα receptor activation relative to 10 nM E2 corresponding 100” value on ERα is given as 1.6%. Moreover, on ERβ, the “ERβ receptor activation relative to 10 nM E2 corresponding 100” value is −0.8%.

Regarding `COc1ccc(CC(O)CC(=O)CCc2ccccc2)cc1` (single isomer, unassigned) [Compound 24b, 5-Hydroxy-6-(4-methoxyphenyl)-1-phenyl-hexan-3-one], the “ERα receptor activation relative to 10 nM E2 corresponding 100” value on ERα worked out at 1.3%. Also, the “ERβ receptor activation relative to 10 nM E2 corresponding 100” value at ERβ came out at 1.2%.

As for `O=C(CCc1ccccc1)CC(O)Cc1ccc2ccccc2c1` (single isomer, unassigned) [Compound 28a, 5-Hydroxy-6-naphthalen-2-yl-1-phenyl-hexan-3-one], at ERα, the “ERα receptor activation relative to 10 nM E2 corresponding 100” value is on record as 12.4%. In addition, the “ERβ receptor activation relative to 10 nM E2 corresponding 100” value on ERβ turned out to be 6.4%.

Take `O=C(CCc1ccccc1)CC(O)Cc1ccc2ccccc2c1` (single isomer, unassigned) [Compound 28b, 5-Hydroxy-6-naphthalen-2-yl-1-phenyl-hexan-3-one]: the “ERα receptor activation relative to 10 nM E2 corresponding 100” value on ERα came out at 20.1%. Besides, the “ERβ receptor activation relative to 10 nM E2 corresponding 100” value on ERβ amounted to 20.1%.

With `O=C(CCCc1ccc(O)cc1)CC(O)c1cccc(O)c1` (single isomer, unassigned) [Compound 35a, 1-Hydroxy-1-(3-hydroxy-phenyl)-6-(4-hydroxy-phenyl)-hexan-3-one], the “ERα receptor activation relative to 10 nM E2 corresponding 100” value at ERα is 87.4%. The “ERβ receptor activation relative to 10 nM E2 corresponding 100” value at ERβ was determined as 107.8%.

As to `O=C(CCCc1ccc(O)cc1)CC(O)c1cccc(O)c1` (single isomer, unassigned) [Compound 35b, 1-Hydroxy-1-(3-hydroxy-phenyl)-6-(4-hydroxy-phenyl)-hexan-3-one], the “ERα receptor activation relative to 10 nM E2 corresponding 100” value at ERα turned out to be 49.3%. The “ERβ receptor activation relative to 10 nM E2 corresponding 100” value on ERβ worked out at 43.8%.

Take `O=C(CCCc1ccc(O)cc1)CC(O)Cc1ccc(O)cc1` (single isomer, unassigned) [Compound 42a, 2-Hydroxy-1,7-di-(4-hydroxy-phenyl)-heptan-4-one]: the “ERα receptor activation relative to 10 nM E2 corresponding 100” value at ERα was 15.4%. Moreover, the “ERβ receptor activation relative to 10 nM E2 corresponding 100” value on ERβ came out at 1.8%.

For `O=C(CCCc1ccc(O)cc1)CC(O)Cc1ccc(O)cc1` (single isomer, unassigned) [Compound 42b, 2-Hydroxy-1,7-di-(4-hydroxy-phenyl)-heptan-4-one], the “ERα receptor activation relative to 10 nM E2 corresponding 100” value at ERα came to 2.8%. For the same molecule, at ERβ, the “ERβ receptor activation relative to 10 nM E2 corresponding 100” value is recorded as −1.6%.

Turning to `O=C(CC(O)CCc1ccccc1)c1ccccc1` (single isomer, unassigned) [Compound 54a, 3-Hydroxy-1,5-diphenyl-pentan-1-one], the “ERα in vitro activity (receptor activation relative to 10 nM E2)” value on ERα stood at 3.0%. In addition, the “ERβ in vitro activity (receptor activation relative to 10 nM E2)” value at ERβ is on record as 1.1%.

In the case of `O=C(CC(O)CCc1ccccc1)c1ccccc1` (single isomer, unassigned) [Compound 54b, 3-Hydroxy-1,5-diphenyl-pentan-1-one], the “ERα in vitro activity (receptor activation relative to 10 nM E2)” value on ERα was determined as 30.2%. For the same molecule, the “ERβ in vitro activity (receptor activation relative to 10 nM E2)” value on ERβ is given as 7.3%.

Values taken from patent publication US20100249243A1, “NOVEL BETA-HYDROXYKETONES AND BETA-ALKOXYKETONES WITH ESTROGENIC ACTIVITY” (priority 2007, published 2010).
